Laboratory results reported in patent US12016942B2, “Potassium hydrogen salts of alkylhydroxamates and compositions comprising the same” (Inolex Investment Corporation, priority 2021, dated 2024).

Legend:
[1] = Solution pH of alkali metal salts of caprylhydroxamic acid in deionized water; assay type: physicochemical; settings: for Solution pH Difference: NaCH minus KH(CH)2
Excerpt: In some cases, the pH adjuster brings the aqueous formulation including potassium hydrogen alkylhydroxamate salts to a lower pH value than if no pH adjuster were employed in the compound. The amount of pH adjuster will depend upon the concentration of the potassium hydrogen alkylhydroxamate salts in aqueous solution. […] […] Target pH levels for the formulations as disclosed herein, e.g., for personal care products and the like, are less than pH 8. Minimal additions of the pH adjuster are required when using potassium hydrogen alkylhydroxamate salt compounds as described herein to achieve the desired pH less than 8.

[2] = Titration of aqueous solutions with 0.1 N HCl; assay type: physicochemical; settings: for titration endpoint: 0.24 wt % aqueous solution, 0.1 N HCl
Protocol: Aqueous solutions (0.24 wt %) of KH(CH)2 and NaCH were prepared by dissolving the respective compounds of Example 1 and Comparative Example 1 in deionized water. The solutions were titrated with 0.1 N HCl solution using a Metrohm autotitrator.

[3] = cited from earlier work

Row | Structure (SMILES) | Solution pH ([1]; 0.15 % in deionized water) | Solution pH ([1]; 0.25 % in deionized water) | Solution pH ([1]; 0.50 % in deionized water) | pH value in a 1% aqueous solution [1] | Solution pH ([1]; 1.00 % in deionized water) | titration endpoint [2] | Solution pH Difference ([1]; 0.15 %) | Solution pH Difference ([1]; 0.25 %) | Solution pH Difference ([1]; 0.50 %) | Solution pH Difference ([1]; 1.00 %) | less acid required to neutralize vs NaCH solution ([2]; identical concentration 0.24 wt %) | pKa [3]
1 | CCCCCCCC(=O)N[O-].O.[Na+] [Comparative Example 1, sodium octanohydroxamate monohydrate, reference compound] | 10.26 | 10.85 | 10.95 | 11.0-11.5 | 11.10 | 18.4 mL |  |  |  |  |  | 
2 | CCCCCCCC(=O)NO.[K] [Example 1, potassium hydrogen caprylhydroxamate] | 9.35 | 9.64 | 9.60 | 9.0-10.0 | 9.58 | 10.7 mL | 0.91 | 1.21 | 1.35 | 1.52 | approximately 42% | 
3 | CCCCCCCC(=O)NO [CHA, caprylhydroxamic acid] |  |  |  |  |  |  |  |  |  |  |  | ≈ 9.4
